We go through eight molecules from ChEMBL document CHEMBL1128850, “Synthesis and qsar of dequalinium analogues AS K+ channel blockers. investigations on the role of the 4-amino group” (Bioorg Med Chem Lett, 1995).

Common to all, as to type: functional
Test [1] is filed under the species Rattus norvegicus. Kind of test: Ability to inhibit the hyperpolarization (AHP) in cultured rat sympathetic neurons. The conditions noted are these: Sympathetic neuron.
For test [2], the species on record is Rattus norvegicus. Nature of the test: Ratio of the negative logarithmic concentration to that of dequalinium that cause 50% inhibition of the hyperpolarization (AHP).
For test [3], the species on record is Rattus norvegicus. Kind of test: The equi-effective molar ratio of the concentration to that of dequalinium that cause 50% inhibition of the hyperpolarization (AHP).

For orientation: IC50 means the midpoint of a concentration-inhibition curve. Low readings indicate greater potency, high ones weaker potency. For `CN(C)c1cc[n+](CCCCCCCCCC[n+]2ccc(N(C)C)c3ccccc32)c2ccccc12`, half-maximal inhibition in the test listed under Rattus norvegicus [1] (IC50) was put at 1400 nM. Further, in the test listed under Rattus norvegicus [2], the pEMR is on record as -0.15. In addition, the EMR in the test listed under Rattus norvegicus [3] was 1.4.

Take `c1ccc(Oc2cc[n+](CCCCCCCCCC[n+]3ccc(Oc4ccccc4)c4ccccc43)c3ccccc23)cc1`: the IC50 in the test listed under Rattus norvegicus [1] came to 2700 nM. Further, the pEMR in the test listed under Rattus norvegicus [2] is on record as -0.81. In addition, the EMR in the test filed under Rattus norvegicus [3] stood at 6.5.

In the case of `Cc1cc[n+](CCCCCCCCCC[n+]2ccc(C)c3ccccc32)c2ccccc12`, the IC50 in the test filed under Rattus norvegicus [1] was 15000 nM. Further, in the test filed under Rattus norvegicus [2], the pEMR is recorded as -1.41. Besides, in the test filed under Rattus norvegicus [3], the EMR was determined as 26.

Turning to `Nc1cc[n+](CCCCCCCCCC[n+]2ccc(N)c3ccccc32)c2ccccc12`, 1400 nM corresponded to half-maximal inhibition in the test filed under Rattus norvegicus [1] (IC50). Also, the pEMR in the test filed under Rattus norvegicus [2] is -0.11. In addition, in the test filed under Rattus norvegicus [3], the EMR is reported as 1.3.

For the molecule `CC(=O)Nc1cc[n+](CCCCCCCCCC[n+]2ccc(NC(C)=O)c3ccccc32)c2ccccc12`, in the test listed under Rattus norvegicus [1], the IC50 is 4500 nM. For the same molecule, in the test filed under Rattus norvegicus [2], the pEMR was -0.74. The EMR in the test filed under Rattus norvegicus [3] is reported as 5.5.

Consider `c1ccc2c(c1)ccc[n+]2CCCCCCCCCC[n+]1cccc2ccccc21`, for which the pEMR in the test listed under Rattus norvegicus [2] was -1.18. Besides, in the test filed under Rattus norvegicus [3], the EMR is on record as 15.

`c1ccc(Nc2cc[n+](CCCCCCCCCC[n+]3ccc(Nc4ccccc4)c4ccccc43)c3ccccc23)cc1` showed an IC50 in the test listed under Rattus norvegicus [1] of 2400 nM. For the same molecule, the pEMR in the test listed under Rattus norvegicus [2] is given as -0.53. In addition, in the test listed under Rattus norvegicus [3], the EMR was 3.4.

Regarding `Cc1cc(N)c2ccccc2[n+]1CCCCCCCCCC[n+]1c(C)cc(N)c2ccccc21.[Cl-].[Cl-]` [DEQUALINIUM CHLORIDE], the pEMR in the test listed under Rattus norvegicus [2] came out at 0. The EMR in the test filed under Rattus norvegicus [3] turned out to be 1.
